A short description of data set [1]: Ertugliflozin-simvastatin drug-drug interaction study, plasma pharmacokinetics.
Data set [2] is described as follows: Ertugliflozin-glimepiride drug-drug interaction study, plasma pharmacokinetics. The data set is classed as in vivo, human. The settings on record: for GMR (90% CI) Cmax, analyte Glimepiride: Test Ertugliflozin + Glimepiride / Reference Glimepiride; for Tmax / AUC(0-t) / Cmax / half-life: oral.
The nature of data set [3]: Ertugliflozin-metformin drug-drug interaction study, plasma pharmacokinetics.
Data set [4] in a line: Ertugliflozin-sitagliptin drug-drug interaction study, plasma pharmacokinetics. The class given is in vivo, human. The settings on record: for AUC(0-inf): po.
A short description of data set [5]: Ertugliflozin plasma PK summarized across all 4 DDI studies. The class given is in vivo. To be noted: human, oral, 15 mg.
Data set [6] is described as follows: Safety and tolerability across all 4 DDI studies. The class given is in vivo, human. To be noted: single dose ertugliflozin 15 mg alone or in combination with sitagliptin, metformin, glimepiride, or simvastatin; healthy subjects.
For data set [7] the following is noted: cited from earlier work.
For data set [8], the system named is OAT3. The settings on record: in vitro studies; cited from earlier work.
Data set [9] relates to OCT2. The settings on record: in vitro studies; cited from earlier work.
Data set [10] relates to P‐glycoprotein. The settings on record: at clinically relevant concentrations; cited from earlier work.
The subject of data set [11] is breast cancer resistance protein. To be noted: at clinically relevant concentrations; cited from earlier work.
Data set [12] has as its system OATP1B1. The settings on record: cited from earlier work.
Data set [13] has as its system OATP1B3. To be noted: cited from earlier work.
For data set [14], the system named is OATP2B1. The settings on record: cited from earlier work.
Data set [15] relates to OCT1. The settings on record: cited from earlier work.
Data set [16] deals with OAT1. To be noted: cited from earlier work.
Data set [17] relates to OAT3. The settings on record: cited from earlier work.
The test system of data set [18] is OCT2. To be noted: cited from earlier work.
Where [19] appears, read: simvastatin 40 mg coadministered with ertugliflozin 15 mg vs alone.
[20] abbreviates: both, human, plasma, oral, 15 mg.

For `CCC(C)(C)C(=O)O[C@H]1C[C@@H](C)C=C2C=C[C@H](C)[C@H](CC[C@@H](O)C[C@@H](O)CC(=O)O)[C@H]21` [Simvastatin Acid, simvastatin acid], in data set [1] (setting [19]), the “Increase in geometric mean AUCinf of simvastatin acid” value amounted to 30% and the “Increase in geometric mean Cmax of simvastatin acid” value was determined as 16%.
On to `CCC1=C(C)CN(C(=O)NCCc2ccc(S(=O)(=O)NC(=O)N[C@H]3CC[C@H](C)CC3)cc2)C1=O` [Glimepiride], for which the “GMR (90% CI) Cmax, analyte Glimepiride” value in [2] is recorded as 97.4 (71.1, 133.5) %. Besides, the “GMR (90% CI) Cmax, analyte Glimepiride” value in [2] (listed as glimepiride) is reported as 97.4%. In addition, the Tmax in [2] (both, human, plasma) is 1 to 12 h. In [2] (both, human, plasma, 1 mg), this compound gave an exposure AUC(0-t) of 0.217 µg·h/mL, a Cmax of 0.0344 µg/mL and a half-life of 5.89 ± 2.79 h. In [2] (both, human, plasma, po, 1 mg), the AUC(0-inf) was found to be 0.249 µg·h/mL. Further, the “Intrasubject variability for Cmax of glimepiride” value in data set [2] (glimepiride 1 mg alone or with ertugliflozin 15 mg) was determined as 53.5%.
Regarding `CCC(C)(C)C(=O)O[C@H]1C[C@@H](C)C=C2C=C[C@H](C)[C@H](CC[C@@H]3C[C@@H](O)CC(=O)O3)[C@H]21` [Simvastatin, reference compound], in [1] (setting [19]), the “Increase in geometric mean AUCinf of simvastatin” value was 24% and the “Increase in geometric mean Cmax of simvastatin” value is recorded as 19%.
As to `CN(C)C(=N)N=C(N)N` [Metformin, reference compound], the “GMR (90% CI) Cmax, analyte Metformin” value in data set [3] (Test Ertugliflozin + Metformin / Reference Metformin) was 94.0 (82.9, 106.6) %. In addition, in [3] (plasma, Metformin 1000 mg alone (N = 18), median (range)), the “Metformin Tmax” value was 2.00 (0.50–4.00) h.
Turning to `N[C@@H](CC(=O)N1CCn2c(nnc2C(F)(F)F)C1)Cc1cc(F)c(F)cc1F` [Sitagliptin, reference compound], in data set [4] (Test Ertugliflozin + Sitagliptin / Reference Sitagliptin), the “GMR (90% CI) Cmax, analyte Sitagliptin” value was 101.7 (91.7, 112.8) %. For the same compound, the half-life in [4] (both, human, plasma, oral, 100 mg) was 11 ± 2.89 h. In data set [4] (human, plasma, oral, 100 mg), the AUC(0-t) is 6.95 µM·h and the Cmax is 0.814 µM. Besides, the AUC(0-inf) in data set [4] (human, plasma, 100 mg) is 7.02 µM·h.
With `CCOc1ccc(Cc2cc([C@]34OC[C@](CO)(O3)[C@@H](O)[C@H](O)[C@H]4O)ccc2Cl)cc1` [Ertugliflozin], the “GMR (90% CI) Cmax, analyte Ertugliflozin” value in data set [4] (Test Ertugliflozin + Sitagliptin / Reference Ertugliflozin) was 98.2 (91.2, 105.7) %; in data set [2] (Test Ertugliflozin + Glimepiride / Reference Ertugliflozin), 98.2 (92.2, 104.6) %; in data set [3] (Test Ertugliflozin + Metformin / Reference Ertugliflozin) it was 97.1 (88.8, 106.3) %; in data set [1] (Test Ertugliflozin + Simvastatin / Reference Ertugliflozin), 105.2 (98.3, 112.5) %. Also, the AUC(0-t) in data set [4] (human, plasma, oral, 15 mg) stood at 1.43 µg·h/mL; in data set [2] (both, human, plasma, 15 mg), 1.23 µg·h/mL; in [3] (setting [20]) it was 1.38 µg·h/mL; in [1] (both, human, in vivo, 15 mg), 1.38 µg·h/mL. Also, the highest concentration (Cmax) turned out to be 0.27 µg/mL in data set [4] (human, plasma, oral, 15 mg); 0.146 µg/mL in data set [2] (both, human, plasma, 15 mg); 0.279 µg/mL in [3] (setting [20]); 0.273 µg/mL in data set [1] (both, human, in vivo, 15 mg). For the same compound, the Tmax in data set [4] (human, plasma, oral, 15 mg) was 1 h; in data set [2] (both, human, plasma, 15 mg), 2 h; in data set [5] it was 1 to 3 h; in [3] (setting [20]), 1.02 h. The compound further yielded an area under the curve AUC(0-inf) in data set [4] (human, plasma, 15 mg) of 1.46 µg·h/mL. The half-life in data set [2] (both, human, plasma, 15 mg) was 10.6 ± 2.44 h; in data set [5] it was 10.6 to 12.6 h; in data set [3] (setting [20]), 11.8 ± 2.34 h; in [1] (both, human, in vivo, 15 mg) it was 12.3 ± 3.07 h. The Tolerability entry in data set [6] is “well tolerated”. Besides, the “Absolute (oral) bioavailability” value in data set [7] is listed as “approximately 100%”. Moreover, the “Renal excretion of unchanged ertugliflozin” value in data set [7] (human, in vivo) was 1.5 % of the administered dose. The “Contribution of glucuronidation to metabolic clearance” value in data set [7] (major metabolic pathway) is recorded as 86%. Besides, the “Contribution of oxidative metabolism” value in data set [7] (minor pathway) is reported as 12%. The “Inhibition of OAT3 transporter” value in data set [8] is “weak inhibitor”. For the same compound, the “Inhibition of OCT2 transporter” value in data set [9] is “weak inhibitor”. For the same compound, the “Substrate of P‐glycoprotein efflux transporter” value in [10] is on record as “substrate”. Also, in [11], the “Substrate of breast cancer resistance protein efflux transporter” value is reported as “substrate”. The “Substrate of OATP1B1 uptake transporter” value in data set [12] is reported as “not a substrate”. In addition, the “Substrate of OATP1B3 uptake transporter” value in data set [13] was “not a substrate”. Besides, the “Substrate of OATP2B1 uptake transporter” value in data set [14] is on record as “not a substrate”. The “Substrate of OCT1 uptake transporter” value in [15] is listed as “not a substrate”. In addition, the “Substrate of OAT1 uptake transporter” value in data set [16] is listed as “not a substrate”. For the same compound, in data set [17], the “Substrate of OAT3 uptake transporter” value is listed as “not a substrate”. Moreover, in data set [18], the “Substrate of OCT2 uptake transporter” value is recorded as “not a substrate”.

These data come from PMC6586154 (Clinical Pharmacology in Drug Development, 2018).
